The species entered for experiment [1] is Homo sapiens. Nature of the experiment: Binding affinity to unfolded 4GGG sequence of human telomeric DNA assessed as G-quadruplex formation at 25 degC by circular dichroism spectroscopy in presence of Li+ ions.
Experiment [2] is filed under the species Homo sapiens. Nature of the experiment: Binding affinity to 2GGG sequence of human telomeric DNA assessed as G-quadruplex stabilization at 25 degC after 30 mins by electrophoretic mobility shift assay in presence of Li+ ions. (In general: A gel shift assay detects complexes by their altered migration in electrophoresis.)
The species named for experiment [3] is Homo sapiens. Nature of the experiment: Binding affinity to 1GGG sequence of human telomeric DNA assessed as G-quadruplex stabilization at 25 degC after 30 mins by electrophoretic mobility shift assay in presence of Li+ ions.
Experiment [4] is filed under the species Homo sapiens. The experiment can be described thus: Binding affinity to 4GGG sequence of human telomeric DNA assessed as intramolecular folding leading to G-quadruplex formation at 25 degC after 30 mins by electrophoretic mobility shift assay.
Experiment [5] in a line: Binding affinity to 2GGG sequence of human telomeric DNA assessed as intramolecular folding leading to G-quadruplex formation at 25 degC after 30 mins by electrophoretic mobility shift assay.
Experiment [6] is filed under the species Homo sapiens. Nature of the experiment: Binding affinity to 42GGG sequence of human telomeric DNA assessed as G-quadruplex formation at 90 degC after 10 mins by electrophoretic mobility shift assay.
Experiment [7] is described as follows: Binding affinity to pu27 sequence of c-myc DNA assessed as G-quadruplex formation at 90 degC […] after 10 mins by electrophoretic mobility shift assay.
Experiment [8] is filed under the species Homo sapiens. The experiment can be described thus: Binding affinity to 42GGG sequence of human telomeric DNA assessed as G-quadruplex formation at 25 degC upto 20 uM after 30 mins by electrophoretic mobility shift assay.
Experiment [9] can be described thus: Binding affinity to pu27 sequence of c-myc DNA assessed as G-quadruplex stabilization at 25 degC after 30 mins at 25 degC by electrophoretic mobility shift assay in presence of Li+ ions.
Experiment [10] can be described thus: Binding affinity to 1GGG sequence of human telomeric DNA assessed as intramolecular folding leading to G-quadruplex formation at 25 degC after 30 mins by electrophoretic mobility shift assay.
The species named for experiment [11] is Homo sapiens. Nature of the experiment: Binding affinity to 4GGG sequence of human telomeric DNA assessed as G-quadruplex formation at 14 uM at 25 degC after 30 mins by circular dichroism spectroscopy in presence of K+ ions.
Experiment [12] is filed under the species Homo sapiens. The experiment can be described thus: Binding affinity to 4GGG sequence of human telomeric DNA assessed as G-quadruplex formation at 14 uM at 25 degC after 30 mins during thermal cycling by circular dichroism spectroscopy.
For another experiment, the system named is Escherichia coli. Nature of the experiment: Binding affinity to negatively supercoiled Escherichia coli pBR322 DNA assessed as self-aggregation at 10 to 20 uM at 37 degC after 30 mins by DNA unwinding assay.
Experiment [13] can be described thus: Binding affinity to pu27 sequence of c-myc DNA assessed as intramolecular folding leading to G-quadruplex formation at 25 degC after 30 mins by electrophoretic mobility shift assay.
The test system of experiment [14] is Nucleic Acid. The experiment can be described thus: Binding affinity to negatively supercoiled Escherichia coli pBR322 DNA assessed as DNA intercalation at 20 to 50 uM at pH 6 after 30 mins by DNA unwinding assay. The format is nucleic-acid assay.
Experiment [15] is filed under the species Homo sapiens. Nature of the experiment: Binding affinity to 4GGG sequence of human telomeric DNA assessed as G-quadruplex stabilization at 25 degC after 30 mins by electrophoretic mobility shift assay in presence of Li+ ions.
Experiment [16] is filed under the species Homo sapiens. The experiment can be described thus: Binding affinity to double stranded 4GGG sequence of human telomeric DNA assessed as G-quadruplex formation at 0.1 to 10 uM at 37 degC after 24 hrs by electrophoretic mobility shift assay.
In experiment [17] the test system is Nucleic Acid. The experiment can be described thus: Binding affinity to negatively supercoiled Escherichia coli pBR322 DNA assessed as DNA intercalation at 10 to 20 uM at pH 8 after 30 mins by DNA unwinding assay. The class given is nucleic-acid assay.
The species named for experiment [18] is Homo sapiens. The experiment can be described thus: Binding affinity to 2GGG sequence of human telomeric DNA assessed as G-quadruplex formation at 25 degC upto 15 uM after 24 hr by electrophoretic mobility shift assay.
The species entered for experiment [19] is Homo sapiens. Nature of the experiment: Binding affinity to 4GGGtail sequence of human telomeric DNA assessed as G-quadruplex formation at 0.1 to 10 uM at 37 degC after 24 hrs by electrophoretic mobility shift assay.
The species named for experiment [20] is Homo sapiens. Nature of the experiment: Binding affinity to 2GGG sequence of human telomeric DNA assessed as G-quadruplex formation at 90 degC upto 15 uM after 10 mins by electrophoretic mobility shift assay.
Experiment [21] is filed under the species Homo sapiens. The experiment can be described thus: Binding affinity to 2GGG sequence of human telomeric DNA assessed as G-quadruplex formation at 25 degC upto 15 uM after 30 mins by electrophoretic mobility shift assay.
Experiment [22] is filed under the species Homo sapiens. The experiment can be described thus: Binding affinity to 2GGG sequence of human telomeric DNA assessed as stabilization of dimeric form of G-quadruplex DNA at 95 degC for 5 mins by electrophoretic mobility shift assay.
The nature of experiment [23]: Binding affinity to double stranded pu27 sequence of c-myc DNA assessed as intramolecular folding leading to G-quadruplex formation at 0.1 to 10 uM at 95 degC after 24 hrs by electrophoretic mobility shift assay.
The nature of experiment [24]: Binding affinity to double stranded pu27 sequence of c-myc DNA assessed as G-quadruplex formation at 14 uM at 25 degC after 30 mins during thermal cycling by circular dichroism spectroscopy.
The nature of experiment [25]: Binding affinity to double stranded pu27 sequence of c-myc DNA assessed as intramolecular folding leading to G-quadruplex formation at 0.1 to 10 uM at 37 degC after 24 hrs by electrophoretic mobility shift assay.
For experiment [26], the species on record is Homo sapiens. Nature of the experiment: Binding affinity to 1GGG sequence of human telomeric DNA assessed as G-quadruplex formation at 14 uM at 25 degC after 30 mins by circular dichroism spectroscopy. (In general: Circular dichroism is widely used to follow secondary structure.)
The nature of experiment [27]: Binding affinity to double stranded pu27 sequence of c-myc DNA assessed as melting temperature at 14 uM at 25 degC after 30 mins by circular dichroism spectroscopy in presence of K+ ions.
For experiment [28], the species on record is Homo sapiens. The experiment can be described thus: Binding affinity to 2GGG sequence of human telomeric DNA assessed as G-quadruplex formation at 14 uM at 25 degC after 30 mins by circular dichroism spectroscopy.
The species entered for experiment [29] is Homo sapiens. Nature of the experiment: Binding affinity to 4GGG sequence of human telomeric DNA assessed as melting temperature at 14 uM at 25 degC after 30 mins by circular dichroism spectroscopy in presence of K+ ions.

Activity calls are given as the source filed them. The rule behind the calls is not given here.

By EC50 is commonly meant the concentration that produces a half-maximal response. Consider `c1cc2c3ccc4c5c(ccc(c6ccc7c(c1CN(CCN1CCCCC1)C7)c26)c53)CN(CCN1CCCCC1)C4`, for which the result (in the experiment listed under Homo sapiens [1]; in the experiment filed under Homo sapiens [2]; in the experiment listed under Homo sapiens [3]; in the experiment filed under Homo sapiens [4]; in experiment [9]; in the experiment filed under Homo sapiens [11]) was Active. Further, the result (in experiment [13]; with Nucleic Acid [14]; in the experiment filed under Homo sapiens [15]) was Active. The EC50 was 20 µM in experiment [5] and 25 µM in [10]. Moreover, the outcome (in the experiment listed under Homo sapiens [6]; in experiment [7]; in the experiment listed under Homo sapiens [8]; in the experiment filed under Homo sapiens [12]; with Escherichia coli; in the experiment listed under Homo sapiens [16]) was inactive.
Take `O=C1c2ccc3c4ccc5c6c(ccc(c7ccc(c2c37)C(=O)N1CCNCCO)c64)C(=O)N(CCNCCO)C5=O`: the outcome (in the experiment filed under Homo sapiens [2]; in the experiment listed under Homo sapiens [3]; in the experiment filed under Homo sapiens [6]; in the experiment listed under Homo sapiens [8]; in [9]; in the experiment filed under Homo sapiens [11]) was Active. Moreover, the result with Nucleic Acid [14], in the experiment filed under Homo sapiens [15] and with Nucleic Acid [17] was Active. Moreover, the EC50 in experiment [5] was determined as 3.8 µM; in experiment [10], 11 µM. The outcome (in [7]; in the experiment filed under Homo sapiens [12]; in the experiment filed under Homo sapiens [16]) was inactive.
As to `CN(C)CCN1C(=O)c2ccc3c4ccc5c6c(ccc(c7ccc(c2c37)C1=O)c64)C(=O)N(CCN(C)C)C5=O`, the outcome (in the experiment filed under Homo sapiens [2]; in the experiment filed under Homo sapiens [18]; in the experiment listed under Homo sapiens [3]; in the experiment filed under Homo sapiens [6]; in the experiment filed under Homo sapiens [8]; in experiment [9]) was Active. For the same compound, the outcome in the experiment filed under Homo sapiens [20], in the experiment filed under Homo sapiens [21], in the experiment listed under Homo sapiens [11], in the experiment listed under Homo sapiens [22], in the experiment on Nucleic Acid [14] and in the experiment listed under Homo sapiens [15] was Active. Also, the result (in experiment [24]; in the experiment with Nucleic Acid [17]) was Active. Also, the outcome (in the experiment filed under Homo sapiens [19]; in experiment [7]; in the experiment listed under Homo sapiens [12]; in [23]; in the experiment filed under Homo sapiens [16]; in [25]) was inactive. The EC50 stood at 4 µM in experiment [5] and 8.7 µM in experiment [10].
`C[N+](C)(C)CCN1C(=O)c2ccc3c4ccc5c6c(ccc(c7ccc(c2c37)C1=O)c64)C(=O)N(CC[N+](C)(C)C)C5=O`: the result (in the experiment filed under Homo sapiens [2]; in the experiment filed under Homo sapiens [3]; in [9]; in the experiment filed under Homo sapiens [11]; in the experiment listed under Homo sapiens [12]; in the experiment on Nucleic Acid [14]) was Active. Further, the result in the experiment filed under Homo sapiens [15] and with Nucleic Acid [17] was Active. For the same compound, the EC50 was found to be 12 µM in experiment [5] and 10.8 µM in experiment [10]. Besides, the result (in [7]; in the experiment filed under Homo sapiens [26]; in the experiment listed under Homo sapiens [28]; in the experiment listed under Homo sapiens [16]) was inactive. In addition, the Tm in [27] was found to be 83 °C; in the experiment filed under Homo sapiens [29], 64 °C.
For `O=C1c2ccc3c4ccc5c6c(ccc(c7ccc(c2c37)C(=O)N1CCN1CCCCC1)c64)C(=O)N(CCN1CCCCC1)C5=O`, the outcome in the experiment filed under Homo sapiens [1], in the experiment filed under Homo sapiens [2], in the experiment filed under Homo sapiens [18], in the experiment listed under Homo sapiens [3], in the experiment filed under Homo sapiens [4] and in the experiment listed under Homo sapiens [19] was Active. Moreover, the outcome (in experiment [9]; in the experiment listed under Homo sapiens [20]; in the experiment filed under Homo sapiens [21]; in the experiment filed under Homo sapiens [11]; in the experiment listed under Homo sapiens [22]; in experiment [13]) was Active. The result (in the experiment on Nucleic Acid [14]; in the experiment filed under Homo sapiens [15]; in experiment [24]) was Active. The EC50 in experiment [5] is 90 µM; in [10], over 100 µM. Moreover, the result (in the experiment listed under Homo sapiens [6]; in [7]; in the experiment filed under Homo sapiens [8]; in the experiment filed under Homo sapiens [12]; in the experiment with Escherichia coli; in the experiment filed under Homo sapiens [16]) was inactive.

For the origin of these results see ChEMBL document CHEMBL1152238, “Perylene side chains modulate G-quadruplex conformation in biologically relevant DNA sequences” (Bioorg Med Chem, 2008).
